Laboratory results: US20060124903A1, “Aerosol preparation comprising sealed container and enclosed therein aerosol composition containing marcolide compound” (Astellas Pharma Inc., priority 2003, published 2006)

Legend:
[1] = Content of tacrolimus solvable in liquefied hydrofluoroalkane; assay type: physicochemical; conditions: liquefied hydrofluoroalkane (HFA-134a, HFA-227)
[2] = Adsorptivity of tacrolimus to resinous material constituting valve part (FIG. 3); assay type: physicochemical
Excerpt: FIG. 3 illustrates the adsorptivity of the active ingredient contained in the aerosol composition to each sample resinous material soaked in the aerosol composition.
The axis of ordinates designates the ratio of (remaining) active ingredient in the aerosol composition to the initial active ingredient therein when the percentage of the initial active ingredient contained in the aerosol composition is 100%.
The aerosol composition used in the test of FIG. 3 contains a 0.025 wt % macrolide compound. To be concrete, the aerosol composition is a solution that contains 2.5 mg tacrolimus serving as the active ingredient, 10 ml liquefied hydrofluoroalkane (HFA-134a) serving as the propellant, and a little amount of lubricant normally used for metered dose inhalation.
In the test of FIG. 3, each of the sample resinous materials is formed into a circular shape having a 5 mm diameter (a 39 mm^2 surface area), similar to the form of first gasket 11. Each of the sample resinous materials is soaked in the aerosol composition solution under the condition of 75% relative humidity and 50° C. for a month. […]

| Compound | content of the tacrolimus solvable in the liquefied hydrofluoroalkane [1] | ratio of (remaining) active ingredient in the aerosol composition to the initial active ingredient [2] |
| --- | --- | --- |
| C=CC[C@@H]1/C=C(\C)C[C@H](C)C[C@H](OC)[C@H]2O[C@@](O)(C(=O)C(=O)N3CCCC[C@H]3C(=O)O[C@H](/C(C)=C/[C@@H]3CC[C@@H](O)[C@H](OC)C3)[C@H](C)[C@@H](O)CC1=O)[C@H](C)C[C@@H]2OC [tacrolimus] | not more than 0.15 wt % |  |
| polyethylene |  | scarcely reduced |
| polypropylene |  | scarcely reduced |
